Positions of bridges follow the written chain, without caps; N, C: chain ends. Non-standard residues stand in square brackets, D forms with d. Residues, ends and D or L forms follow the SMILES beside them. Chains are numbered I, II in the order given. PEG4 = NCCOCCOCCOCCOCCC(=O)O
Columns and labels:
[1] = system: P. aeruginosa PAO1; experiment: Sepsis model in neutropenic BALB/c mice, survival; format: in vivo, Pseudomonas aeruginosa; conditions: PAO1 1.5 × 10^3 CFU/mouse i.p., 5 mg/Kg i.v. twice, 24 and 72 h post-infection, 12 days, 10 mice/group
Method: Neutropenic mice were injected i.p. with a lethal amount of P. aeruginosa PAO1 (1.5 × 10^3 CFU/mouse). Then mice were treated twice i.v. with SET-M33L or SET-M33L-PEG (5 mg/Kg), 24 and 72 hours post-infection. Then animals were monitored for survival for 12 days. Survivals of 60% and 80% were obtained with SET-M33L or SET-M33L-PEG, respectively (Fig. 1). Note that this is a model of acute and rapidly progressive infection, since animals start to show signs of disease within 24 hours and controls died after 40–65 hours. Treatment with the peptides begun 24 h after onset of the infection. The relatively long interval between i.p. inoculation of bacteria and the start of i.v. treatment in animals with suppressed immune systems is a valid indication of the potency of the peptides in vivo.
Animal procedures were approved by the Ethics Committees of the Azienda Ospedaliera Universitaria Senese on November 18, 2010, and of the Italian Ministry of Health on September 21, 2012. Eight-week-old (20 g) BALB/c female mice (Charles River) were used in all experiments. […] All p values were calculated using GraphPad Prism 5.0 software.
In the Pseudomonas model of sepsis[35] animals were rendered neutropenic by i.p. administration of cyclophosphamide (Sigma-Aldrich C7397) at 150 mg/kg (300 μl of a 10 mg/ml solution) 4 days and 1 day before infection. […] Surviving mice were monitored for 12 days. […]

[2] = system: P. aeruginosa PAO1; experiment: Lung infection model in neutropenic BALB/c mice, i.v. treatment, survival; format: in vivo, Pseudomonas aeruginosa; conditions: PAO1 1.5 × 10^3 CFU/mouse i.t., 5 mg/Kg i.v. twice, 1 and 16 h post-infection, 10 days, 10 mice/group
Method: Neutropenic mice were injected intra-tracheally (i.t.) with a lethal amount of P. aeruginosa PAO1 (1.5 × 10^3 CFU/mouse). They were then treated twice i.v. 1 and 16 hours post-infection with SET-M33L or SET-M33L-PEG 5 mg/Kg and monitored for survival for 10 days. We obtained 40% and 60% survival with SET-M33L and SET-M33L-PEG, respectively (Fig. 2A).
Animal procedures were approved by the Ethics Committees of the Azienda Ospedaliera Universitaria Senese on November 18, 2010, and of the Italian Ministry of Health on September 21, 2012. Eight-week-old (20 g) BALB/c female mice (Charles River) were used in all experiments. The animals were maintained and handled in accordance with the Guidelines for Accommodation and Care of Animals (European Convention for the Protection of Vertebrate Animals Used for Experimental and Other Scientific Purposes) and internal guidelines. For each experiment the animals were housed in groups of five mice per cage upon arrival and maintained with food and water ad libitum for 5 days before the beginning of treatment. All p values were calculated using GraphPad Prism 5.0 software.
We set up two lung infection models, one for i.v. and the other for intra-tracheal (i.t.) treatment. In the i.v. model, animals were made neutropenic as described in the sepsis model. […] Surviving mice were monitored for 10 days. […]

[3] = system: BALB/c mice; experiment: Acute toxicity in mice, single i.v. dose; format: in vivo, mouse
Method: As preliminary toxicity evaluation we first compared the acute toxicity of SET-M33L and SET-M33L-PEG with that of colistin. Animals (10 BALB/c mice/group) were injected i.v. with different amounts of SET-M33L, SET-M33L-PEG or colistin, in single dose, in the range 5–40 mg/kg (Fig. 4), and were monitored for 4 days after inoculation of the peptide. […] At 40 mg/Kg SET-M33L and SET-M33L-PEG produced similar toxicity profiles with strong signs of toxicity and 90–100% mortality after 96 hours. Colistin produced strong signs of toxicity already at 10 mg/Kg: 50% mortality immediately after inoculation and 70% mortality after 24 hours. Colistin induced sudden death in 100% of mice at 20 and 40 mg/Kg.
Mice were treated by a single i.v. administration of different amounts (40, 20, 10, 5 mg/Kg) of SET-M33L, SET-M33L-PEG or colistin sulfate (Sigma-Aldrich, C4461). Signs of toxicity were checked four times a day by visual inspection. A toxicity score was assigned for the following signs: wiry coat and poor motility = mild signs; very wiry coat, abundant lachrymation and poor motility even under stimulation = manifest signs. Animals were monitored for 4 days after inoculation of the peptide. Mice were weighed every day from arrival to the last day of the experiment. Moribund animals were killed humanely to avoid unnecessary distress.

CC[C@H](C)[C@H](NC(=O)[C@H](CCCCN)NC(=O)[C@@H](N)CCCCN)C(=O)N[C@@H](CCCNC(=N)N)C(=O)N[C@H](C(=O)N[C@@H](CCCNC(=N)N)C(=O)N[C@@H](CC(C)C)C(=O)N[C@@H](CO)C(=O)N[C@@H](C)C(=O)NCCCC[C@H](NC(=O)[C@H](C)NC(=O)[C@H](CO)NC(=O)[C@H](CC(C)C)NC(=O)[C@H](CCCNC(=N)N)NC(=O)[C@@H](NC(=O)[C@H](CCCNC(=N)N)NC(=O)[C@@H](NC(=O)[C@H](CCCCN)NC(=O)[C@@H](N)CCCCN)[C@@H](C)CC)C(C)C)C(=O)NCCCC[C@H](NC(=O)[C@H](CCCCNC(=O)[C@H](C)NC(=O)[C@H](CO)NC(=O)[C@H](CC(C)C)NC(=O)[C@H](CCCNC(=N)N)NC(=O)[C@@H](NC(=O)[C@H](CCCNC(=N)N)NC(=O)[C@@H](NC(=O)[C@H](CCCCN)NC(=O)[C@@H](N)CCCCN)[C@@H](C)CC)C(C)C)NC(=O)[C@H](C)NC(=O)[C@H](CO)NC(=O)[C@H](CC(C)C)NC(=O)[C@H](CCCNC(=N)N)NC(=O)[C@@H](NC(=O)[C@H](CCCNC(=N)N)NC(=O)[C@@H](NC(=O)[C@H](CCCCN)NC(=O)[C@@H](N)CCCCN)[C@@H](C)CC)C(C)C)C(=O)NCCOCCOCCOCCOCCC(N)=O)C(C)C [SET-M33L-PEG] (I: H-KKIRVRLSAKK[PEG4]-NH2 / II: H-KKIRVRLSAK / III: H-KKIRVRLSA / IV: H-KKIRVRLSA; amide I:10-IV:C, I:11-II:C, II:10-III:C; N-terminus assumed)
survival [1]: 80% | survival [2]: 60% | mortality ([3]; single i.v. dose 40 mg/Kg, after 96 hours): 90–100% | lethality and signs of toxicity ([3]; single i.v. dose up to 20 mg/kg, monitored 4 days, 10 BALB/c mice/group): not lethal and no signs of toxicity were observed
